Data taken from paper PMC7918049, “Juncaceae Species as Promising Sources of Phenanthrenes: Antiproliferative Compounds from Juncus maritimus Lam” (Molecules, 2021).
Read-outs that look alike come from different tables or passages of the source.

How the values were obtained:
[1] = test system: cisplatin-resistant human ovarian cancer cell line A2780cis; experiment: MTT antiproliferative assay, A2780cis; format: cell-based; settings: 72 h, mean of four parallel experiments, read-out: IC50 (µM) ± SD A2780cis
Procedure: (§1) Breast cancer cell line MCF-7 (ATCC®® HTB-22) and the drug-resistant subline of the human breast cancer MCF-7 (ECACC 86012803; KCR) were purchased from LGC Promochem (Teddington, UK). Both cell lines were cultured in Eagle’s Minimal Essential Medium (EMEM, containing 4.5 g/L glucose) supplemented with a non-essential amino acid mixture, a selection of vitamins, and 10% heat-inactivated fetal bovine serum. In every third passage, 0.56 µg/mL doxorubicin was added to the medium in order to maintain the ABCB1 (P-glycoprotein) expression in KCR cells. A2780 human ovarian cancer cell line (ECACC European Collection of Authentical Cell Culture, Sigma Cat. no. 93112519) and the cisplatin-resistant human ovarian cancer cell line A2780cis (ECACC European Collection of Authentical Cell Culture, Sigma Cat. no. 93112517) were purchased from Merck KGaA (Darmstadt, Germany). The human ovarian cancer cell lines were cultured in RPMI 1640 medium supplemented with 10% heat-inactivated fetal bovine serum. The RPMI 1640 medium of the cisplatin-resistant cell line A2780 was supplemented with 1 µM cisplatin. HeLa (ATCC® CCL-2™) human cervix carcinoma, HTB-26 breast adenocarcinoma, T-47D (ATCC® HTB-133™) ductal carcinoma, and MRC-5 human embryonal lung fibroblast cell lines (ATCC® CCL-171) were purchased from LGC Promochem (Teddington, UK). The cells were cultured in Eagle’s Minimal Essential Medium (EMEM, containing 4.5 g/L glucose) supplemented with a non-essential amino acid mixture, a selection of vitamins, and 10% heat-inactivated fetal bovine serum. HTB-26 cell line was cultured in RPMI 1640 medium supplemented with 10% heat-inactivated fetal bovine serum. T-47D cells were cultured in RPMI 1640 medium supplemented with 10% heat-inactivated fetal bovine serum, 2 mM L-glutamine, 1 mM Na-pyruvate, and 100 mM Hepes. All of the cells were incubated at 37 °C, in a 5% CO2, 95% air atmosphere.
(§2) The antiproliferative effect of the compounds was determined on the human breast (MCF-7, KCR, T-47D, HTB-26), cervical (HeLa), and ovarian (A2780, A2780cis) cancer cells, and on MRC-5 (human embryonic lung fibroblast) cell line. The adherent cells were cultured in 96-well flat-bottomed microtiter plates, using EMEM supplemented with 10% heat-inactivated fetal bovine serum or RPMI 1640 supplemented with 10% heat-inactivated fetal bovine serum, respectively. The density of the cells was adjusted to 6 × 10^3 cells in 100 μL per well, the cells were seeded for 24 h at 37 °C, 5% CO2, then the medium was removed from the plates and fresh medium (100 μL per well) was added to the cells. The effects of increasing concentrations of compounds on cell proliferation were tested in 96-well flat-bottomed microtiter plates. The compounds were diluted in the appropriate medium, the dilutions of compounds were performed in separate plates and then added to the cells. The starting concentration of the compounds was 100 μM, and two-fold serial dilution was performed (concentration range: 100-0.19 μM). The culture plates were incubated at 37 °C for 72 h; at the end of the incubation period, 20 μL of MTT (thiazolyl blue tetrazolium bromide, Sigma) solution (from a stock solution of 5 mg/mL) was added to each well. After incubation at 37 °C for 4 h, 100 μL of sodium dodecyl sulfate (SDS) (Sigma) solution (10% in 0.01 M HCI) were added to each well and the plates were further incubated at 37 °C overnight. Cell growth was determined by measuring the optical density (OD) at 540/630 nm with Multiscan EX ELISA reader (Thermo Labsystems, Cheshire, WA, USA). Mean IC50 values were obtained by best fitting the dose-dependent inhibition curves in GraphPadPrism5 program (GraphPad Software version 5.00 for Windows, San Diego, CA, USA) from four parallel experiments for each cell line. Results are expressed in terms of IC50, defined as the inhibitory dose that reduces the proliferation of the cells exposed to the tested compounds by 50% [14].

[2] = test system: A2780 human ovarian cancer cell line; experiment: MTT antiproliferative assay, A2780; format: cell-based; settings: 72 h, A2780, mean of four parallel experiments, read-out: IC50 (µM) ± SD A2780
Procedure: as §1, §2

[3] = test system: KCR, drug-resistant subline of the human breast cancer MCF-7; experiment: MTT antiproliferative assay, KCR; format: cell-based; settings: mean of four parallel experiments, read-out: IC50 (µM) ± SD KCR
Procedure: as §1, §2

[4] = test system: MRC-5 human embryonal lung fibroblast cell line; experiment: MTT antiproliferative assay, MRC-5 normal cells; format: cell-based; settings: for IC50: MRC-5 normal fibroblasts, mean of four parallel experiments, read-out: IC50 (µM) ± SD MRC-5
Procedure: as §1, §2

[5] = test system: HTB-26 breast adenocarcinoma cells; experiment: MTT antiproliferative assay, HTB-26; format: cell-based, human; settings: HTB-26, mean of four parallel experiments, read-out: IC50 (µM) ± SD HTB-26
Procedure: as §1, §2

[6] = test system: Breast cancer cell line MCF-7; experiment: MTT antiproliferative assay, MCF-7; format: cell-based, human; settings: MCF-7, mean of four parallel experiments, read-out: IC50 (µM) ± SD MCF-7
Procedure: as §1, §2

[7] = test system: HeLa human cervix carcinoma cells; experiment: MTT antiproliferative assay, HeLa; format: cell-based; settings: 72 h, mean of four parallel experiments, read-out: IC50 (µM) ± SD HeLa
Procedure: as §1, §2

[8] = test system: T-47D ductal carcinoma cells; experiment: MTT antiproliferative assay, T-47D; format: cell-based, human; settings: 72 h, mean of four parallel experiments, read-out: IC50 (µM) ± SD T-47D
Procedure: as §1, §2

[9] = test system: HeLa, HTB-26, T-47D, A2780, A2780cis, MCF-7, KCR and MRC-5 cell lines; experiment: MTT antiproliferative assay, all cell lines investigated (overall statements); format: cell-based, human; settings: 72 h, all cell lines tested
Procedure: Breast cancer cell line MCF-7 (ATCC®® HTB-22) and the drug-resistant subline of the human breast cancer MCF-7 (ECACC 86012803; KCR) were purchased from LGC Promochem (Teddington, UK). Both cell lines were cultured in Eagle’s Minimal Essential Medium (EMEM, containing 4.5 g/L glucose) supplemented with a non-essential amino acid mixture, a selection of vitamins, and 10% heat-inactivated fetal bovine serum. In every third passage, 0.56 µg/mL doxorubicin was added to the medium in order to maintain the ABCB1 (P-glycoprotein) expression in KCR cells. A2780 human ovarian cancer cell line (ECACC European Collection of Authentical Cell Culture, Sigma Cat. no. 93112519) and the cisplatin-resistant human ovarian cancer cell line A2780cis (ECACC European Collection of Authentical Cell Culture, Sigma Cat. no. 93112517) were purchased from Merck KGaA (Darmstadt, Germany). The human ovarian cancer cell lines were cultured in RPMI 1640 medium supplemented with 10% heat-inactivated fetal bovine serum. […]
The antiproliferative effect of the compounds was determined on the human breast (MCF-7, KCR, T-47D, HTB-26), cervical (HeLa), and ovarian (A2780, A2780cis) cancer cells, and on MRC-5 (human embryonic lung fibroblast) cell line. […] Cell growth was determined by measuring the optical density (OD) at 540/630 nm with Multiscan EX ELISA reader (Thermo Labsystems, Cheshire, WA, USA). […]

Zymoseptoria tritici = test system: Zymoseptoria tritici; set-up: method as in PMID 28484977; settings: cited from earlier work
[10] = test system: hepatitis C (HCV) replication; set-up: method as in PMID 30842319; settings: cited from earlier work

Compound	IC50 ([1]; Homo sapiens) [µM]	IC50 ([2]; Homo sapiens) [µM]	IC50 ([3]; Homo sapiens, MCF7, 72 h) [µM]	IC50 ([5]; Homo sapiens, HTB26, 72 h) [µM]	IC50 ([6]; Homo sapiens, MCF7, 72 h) [µM]	IC50 ([7]; Homo sapiens) [µM]	IC50 ([8]; Homo sapiens, T47D) [µM]	selectivity: effect on MRC-5 normal lung fibroblasts compared to cancer cell lines (in words) ([4]; 72 h, MRC-5 versus cancer cell lines)	IC50 ([4]; Homo sapiens, MRC5, 72 h) [µM]	IC50 [1] [µM]	antiproliferative activity across the cell lines investigated (in words) [9]	IC50 ([6]; 72 h) [µM]	in vitro antifungal activity against Zymoseptoria tritici (in words) (Zymoseptoria tritici)	IC50 [2] [µM]	IC50 ([3]; 72 h) [µM]	IC50 ([4]; 72 h) [µM]	IC50 ([5]; 72 h) [µM]	IC50 [7] [µM]	IC50 [8] [µM]	inhibition of hepatitis C (HCV) replication (in words) [10]
Cc1c(O)cc2ccc3c(C)c(O)cc4c3c2c1C(O)C4 (stereo not drawn) [Compound 3, maritin C]	< 20	23.7 ± 0.1	> 100	35.9 ± 1.5		43.2 ± 0.7	17 ± 0.6		15 ± 0.2	18.6 ± 0.1										
C=Cc1cc(O)c(C)c2c1-c1ccc(O)c(C)c1CC2 [Compound 8, 2,7-dihydroxy-1,8-dimethyl-5-vinyl-9,10-dihydrophenanthrene]	> 100	> 100	> 100	> 100	69.5 ± 1.7	> 100	57 ± 7.1		> 100											
C=Cc1cc(C)cc2c1-c1ccc(O)c(C)c1CC2 [Compound 9, juncunol]	52.8 ± 2.4	43.5 ± 1.1	68.4 ± 2.5	75 ± 5	45.7 ± 2.4	76.7 ± 1.8	41.4 ± 5.8		78.4 ± 3.7											
N.N.[Cl][Pt][Cl] [cisplatin, reference compound]										7.3 ± 0.2		0.9		3.6 ± 0.3	6.5 ± 0.3	0.6	20.1 ± 2.3	2.3 ± 0.1	5.9 ± 0.1	
C=Cc1c(C)c(O)cc2ccc3c(C)c(O)ccc3c12 [dehydrojuncusol]																				novel inhibitor of hepatitis C (HCV) replication

Continued by falling IC50 ([7]; Homo sapiens), values first:

IC50 ([1]; Homo sapiens) [µM]	IC50 ([2]; Homo sapiens) [µM]	IC50 ([3]; Homo sapiens, MCF7, 72 h) [µM]	IC50 ([5]; Homo sapiens, HTB26, 72 h) [µM]	IC50 ([6]; Homo sapiens, MCF7, 72 h) [µM]	IC50 ([7]; Homo sapiens) [µM]	IC50 ([8]; Homo sapiens, T47D) [µM]	Compound	selectivity: effect on MRC-5 normal lung fibroblasts compared to cancer cell lines (in words) ([4]; 72 h, MRC-5 versus cancer cell lines)	IC50 ([4]; Homo sapiens, MRC5, 72 h) [µM]	IC50 [1] [µM]	antiproliferative activity across the cell lines investigated (in words) [9]	IC50 ([6]; 72 h) [µM]	in vitro antifungal activity against Zymoseptoria tritici (in words) (Zymoseptoria tritici)	IC50 [2] [µM]	IC50 ([3]; 72 h) [µM]	IC50 ([4]; 72 h) [µM]	IC50 ([5]; 72 h) [µM]	IC50 [7] [µM]	IC50 [8] [µM]	inhibition of hepatitis C (HCV) replication (in words) [10]
40.1 ± 0.4	21.5 ± 0.4	57.6 ± 0.7	48.7 ± 1.6	34.7 ± 3	57 ± 1.3	12.8 ± 0.9	C=Cc1cc(O)c(CO)c2c1-c1ccc(O)c(C)c1CC2 [Compound 1, maritin A]	less antiproliferative effect on MRC-5 normal lung fibroblasts compared to the other cancer cell lines	75.4 ± 1.8											
< 20	25.6 ± 2.4	19.6 ± 0.9	24.7 ± 2.1	< 20	25.2 ± 0.6	6.2 ± 0.1	C=Cc1cc(O)cc2c1-c1cc(-c3cc4c(c(C)c3O)CCc3cc(O)cc(C=C)c3-4)c(O)c(C)c1CC2 [Compound 11, effususin A]		20.1 ± 1.6	16.3 ± 0.3	substantial antiproliferative activity against all cell lines investigated									
32.3 ± 2.3	30 ± 3.6	70.6 ± 3.1	85.3 ± 4.5	38 ± 2	24.7 ± 0.5	26.6 ± 1.1	Cc1c(O)ccc2c1CCc1cc(O)cc(C=O)c1-2 [Compound 7, 2,7-dihydroxy-1-methyl-5-aldehyde-9,10-dihydrophenanthrene]		71.1 ± 1.3											
< 20	14.1 ± 1.3	16.2 ± 0.6	25.1 ± 0.3	< 20	22.5 ± 1.2	9.1 ± 0.4	C=Cc1cc(O)cc2c1-c1ccc(Oc3cc4c(c(C)c3O)CCc3cc(O)cc(C=C)c3-4)c(C)c1CC2 [Compound 4, maritin D]		17.1 ± 3.1	13.3 ± 0.1	substantial antiproliferative activity against all cell lines investigated	14.2 ± 0.3								
> 100	> 100	> 100	> 100	97 ± 0.3	11 ± 0.9	> 100	C=Cc1c(C)ccc2c1CCc1c-2ccc(O)c1C [Compound 2, maritin B]		> 100											
			57 ± 2.73		2.3 ± 0.7		C=Cc1cc(O)cc2c1-c1ccc(O)c(C)c1CC2 [Compound 6, effusol]						significant in vitro antifungal activity							
					0.5	25 ± 0.4	C=Cc1c(C)c(O)cc2c1-c1ccc(O)c(C)c1CC2 [Compound 5, juncusol]													
